Experimental data: ChEMBL document CHEMBL5303573, “Mapping human microbiome drug metabolism by gut bacteria and their genes” (Nature, 2019)

Key:
[1] = The drug is tested on Bacteroides uniformis strain: ATCC8492 for biotransformation. The drug concentrations were measured before and after a 12-h incubation by liquid-chromatography-coupled mass spectrometry (LC–MS); details: 2 µM
[2] = The drug is tested on Ruminococcus gnavus strain: ATCC29149 for biotransformation. The drug concentrations were measured before and after a 12-h incubation by liquid-chromatography-coupled mass spectrometry (LC–MS); details: mediterraneibacter gnavus, 2 µM
[3] = bacteroides eggerthii, 12 h, 2 µM
Description: The drug is tested on Bacteroides eggerthii strain: DSM20697 for biotransformation. The drug concentrations were measured before and after a 12-h incubation by liquid-chromatography-coupled mass spectrometry (LC–MS)

[4] = The drug is tested on Subdoligranulum variabile strain: DSM15176 for biotransformation. The drug concentrations were measured before and after a 12-h incubation by liquid-chromatography-coupled mass spectrometry (LC–MS); details: 2 µM
[5] = The drug is tested on Eggerthella lenta strain: ATCC25559 for biotransformation. The drug concentrations were measured before and after a 12-h incubation by liquid-chromatography-coupled mass spectrometry (LC–MS); details: 2 µM
[6] = The drug is tested on Clostridium sp. strain: fecal isolate for biotransformation. The drug concentrations were measured before and after a 12-h incubation by liquid-chromatography-coupled mass spectrometry (LC–MS); details: 2 µM
[7] = victivallis vadensis, 12 h, 2 µM
Description: The drug is tested on Victivallis vadensis strain: ATCC BAA-548 for biotransformation. The drug concentrations were measured before and after a 12-h incubation by liquid-chromatography-coupled mass spectrometry (LC–MS)

Compound	Bacterial Biotransformation [1]	Bacterial Biotransformation [2]	Bacterial Biotransformation [3]	Bacterial Biotransformation [4]	Bacterial Biotransformation [5]	Bacterial Biotransformation [6]	Bacterial Biotransformation [7]
CCN(C)C(=O)Oc1cccc([C@H](C)N(C)C)c1.O=C(O)C(O)C(O)C(=O)O [RIVASTIGMINE TARTRATE]	Compound NOT metabolized	Compound NOT metabolized	Compound NOT metabolized	Compound NOT metabolized	Compound NOT metabolized	Compound NOT metabolized	Compound NOT metabolized
CS(=O)(=O)O.OC(CCN1CCCCC1)(c1ccccc1)c1ccccc1 [PRIDINOL METHANESULFONATE]		Compound NOT metabolized	Compound NOT metabolized	Compound NOT metabolized	Compound NOT metabolized		Compound NOT metabolized
CC(N)C12CC3CC(CC(C3)C1)C2 (centres undefined) [RIMANTADINE]	Compound NOT metabolized	Compound NOT metabolized	Compound NOT metabolized		Compound NOT metabolized	Compound NOT metabolized	Compound NOT metabolized
C#C[C@]1(OC(C)=O)CC[C@H]2[C@@H]3CCC4=C[C@@H](OC(C)=O)CC[C@@H]4[C@H]3CC[C@@]21C [ETHYNODIOL DIACETATE]			Compound NOT metabolized	Compound NOT metabolized	Compound NOT metabolized	Compound NOT metabolized	Compound NOT metabolized
CC1=C(CC(=O)O)c2cc(F)ccc2/C1=C\c1ccc([S+](C)[O-])cc1 (centres undefined)	Compound NOT metabolized	Compound NOT metabolized	Compound NOT metabolized	Compound NOT metabolized	Compound NOT metabolized	Compound NOT metabolized	Compound NOT metabolized
CCCCCNC(=N)N/N=C/c1c[nH]c2ccc(OC)cc12.O=C(O)/C=C\C(=O)O [TEGASEROD MALEATE]	Compound NOT metabolized	Compound NOT metabolized	Compound NOT metabolized	Compound NOT metabolized		Compound NOT metabolized	Compound NOT metabolized
CN1[C@@H]2CC[C@H]1C[C@@H](OC(=O)c1c[nH]c3ccccc13)C2 [TROPISETRON]	Compound NOT metabolized	Compound NOT metabolized	Compound NOT metabolized	Compound NOT metabolized	Compound NOT metabolized	Compound NOT metabolized	Compound NOT metabolized
CN(C)CCc1c[nH]c2ccc(Cn3cncn3)cc12.O=C(O)c1ccccc1 [RIZATRIPTAN BENZOATE]			Compound NOT metabolized	Compound NOT metabolized	Compound NOT metabolized		Compound NOT metabolized
C[C@]12C=CC(=O)C=C1CC[C@@H]1[C@@H]2C(=O)C[C@@]2(C)[C@H]1CC[C@]2(O)C(=O)CO [PREDNISONE]	Compound NOT metabolized	Compound NOT metabolized	Compound NOT metabolized	Compound NOT metabolized		Compound NOT metabolized	Compound NOT metabolized
CC(C)c1nc(CN(C)C(=O)N[C@H](C(=O)N[C@@H](Cc2ccccc2)C[C@H](O)[C@H](Cc2ccccc2)NC(=O)OCc2cncs2)C(C)C)cs1 [RITONAVIR]	Compound metabolized	Compound NOT metabolized	Compound metabolized	Compound NOT metabolized	Compound NOT metabolized	Compound metabolized	Compound NOT metabolized
CC(=O)CC(c1ccccc1)c1c(O)c2ccccc2oc1=O (centres undefined) [WARFARIN]	Compound NOT metabolized	Compound NOT metabolized	Compound NOT metabolized	Compound NOT metabolized	Compound NOT metabolized	Compound NOT metabolized	Compound NOT metabolized
CCCN(CCC)CCc1cccc2c1CC(=O)N2 [ROPINIROLE]	Compound NOT metabolized	Compound NOT metabolized	Compound NOT metabolized	Compound NOT metabolized	Compound NOT metabolized		Compound NOT metabolized
CCC(COC(=O)c1cc(OC)c(OC)c(OC)c1)(c1ccccc1)N(C)C.O=C(O)/C=C\C(=O)O (centres undefined)	Compound metabolized	Compound metabolized	Compound NOT metabolized	Compound metabolized	Compound metabolized	Compound metabolized	Compound metabolized
CC(C)NCC(O)c1ccc(NS(C)(=O)=O)cc1 (centres undefined) [SOTALOL]	Compound metabolized	Compound NOT metabolized	Compound NOT metabolized		Compound NOT metabolized		Compound NOT metabolized
CC(CN(C)C)CN1c2ccccc2CCc2ccccc21.O=C(O)/C=C\C(=O)O (centres undefined) [TRIMIPRAMINE MALEATE]	Compound NOT metabolized	Compound NOT metabolized	Compound NOT metabolized		Compound NOT metabolized	Compound NOT metabolized	Compound NOT metabolized
CCN(CC)CCNC(C(=O)OCCC(C)C)c1ccccc1.Cl.Cl (centres undefined)		Compound NOT metabolized	Compound NOT metabolized	Compound metabolized			Compound NOT metabolized
CC[C@@]1(O)C(=O)OCc2c1cc1n(c2=O)Cc2cc3c(CN(C)C)c(O)ccc3nc2-1 [TOPOTECAN]	Compound NOT metabolized	Compound NOT metabolized		Compound NOT metabolized	Compound NOT metabolized	Compound NOT metabolized	Compound NOT metabolized
CC(C)c1nc(N(C)S(C)(=O)=O)nc(-c2ccc(F)cc2)c1/C=C/[C@@H](O)C[C@@H](O)CC(=O)[O-].CC(C)c1nc(N(C)S(C)(=O)=O)nc(-c2ccc(F)cc2)c1/C=C/[C@@H](O)C[C@@H](O)CC(=O)[O-].[Ca+2] [ROSUVASTATIN CALCIUM]	Compound NOT metabolized	Compound NOT metabolized	Compound NOT metabolized			Compound NOT metabolized	Compound NOT metabolized
CCCCCCOC(=O)/N=C(/N)c1ccc(NCc2nc3cc(C(=O)N(CCC(=O)OCC)c4ccccn4)ccc3n2C)cc1.CS(=O)(=O)O [DABIGATRAN ETEXILATE MESYLATE]	Compound NOT metabolized	Compound NOT metabolized	Compound NOT metabolized	Compound NOT metabolized	Compound NOT metabolized		Compound NOT metabolized
O=C(O)CCC(=O)O.O=C(O[C@H]1CN2CCC1CC2)N1CCc2ccccc2[C@@H]1c1ccccc1 [SOLIFENACIN SUCCINATE]	Compound NOT metabolized	Compound NOT metabolized	Compound NOT metabolized		Compound NOT metabolized	Compound NOT metabolized	Compound NOT metabolized
Cc1ccc(-c2nc3ccc(C)cn3c2CC(=O)N(C)C)cc1 [ZOLPIDEM]	Compound NOT metabolized	Compound NOT metabolized		Compound NOT metabolized	Compound NOT metabolized	Compound NOT metabolized	Compound NOT metabolized
COc1ccc(CN2CCNCC2)c(OC)c1OC.Cl.Cl [TRIMETAZIDINE DIHYDROCHLORIDE]	Compound metabolized	Compound NOT metabolized	Compound NOT metabolized		Compound NOT metabolized	Compound NOT metabolized	Compound NOT metabolized
CNNCc1ccc(C(=O)NC(C)C)cc1 [PROCARBAZINE]	Compound NOT metabolized	Compound NOT metabolized				Compound NOT metabolized	Compound NOT metabolized
CCN(CC)CCCC(C)Nc1c2ccc(Cl)cc2nc2ccc(OC)cc12 (centres undefined) [QUINACRINE]	Compound NOT metabolized		Compound NOT metabolized	Compound NOT metabolized	Compound NOT metabolized		Compound NOT metabolized
CC(C)(C)N.CCC[C@H](N[C@@H](C)C(=O)N1[C@H](C(=O)O)C[C@@H]2CCCC[C@@H]21)C(=O)OCC [PERINDOPRIL ERBUMINE]	Compound NOT metabolized	Compound NOT metabolized	Compound NOT metabolized			Compound NOT metabolized	Compound NOT metabolized
